Measured values taken from ChEMBL document CHEMBL5042495, “Lead Optimization of Influenza Virus RNA Polymerase Inhibitors Targeting PA-PB1 Interaction” (J Med Chem, 2022).

How the values were obtained:
[1] = Cytotoxicity in dog MDCK cells assessed as reduction in cell viability incubated for 48 hrs by crystal violet staining based assay; type: toxicity, Canis lupus familiaris
Influenza A virus = assay: Antiviral activity against Influenza A virus A/WSN/33(H1N1) strain infected in MDCK cells assessed as reduction in viral infection incubated for 48 hrs by crystal violet staining based assay; type: functional, organism-based

CCCc1ccc2[nH]c(=O)c(CN(Cc3ccc(F)cc3)Cc3ccc(C(C)(C)C)cc3)cc2c1
CC50 at 48 h [1]: 8.4 µM | EC50 (Influenza A virus): 28 µM

CCc1ccc(CN(Cc2ccc(F)cc2)Cc2cc3ccc(C)cc3[nH]c2=O)cc1
CC50 at 48 h [1]: > 33 µM | EC50 (Influenza A virus): 1.8 µM

CCc1ccc2[nH]c(=O)c(CN(Cc3ccc(C(C)(C)C)cc3)[C@H](C)c3ccc(F)cc3)cc2c1
CC50 at 48 h [1]: > 5 µM

Cc1ccc2cc(CNCc3ccc(F)cc3)c(=O)[nH]c2c1
CC50 at 48 h [1]: > 33 µM

Cc1ccc2[nH]c(=O)c(CN(Cc3ccc(OC(F)F)cc3)Cc3ccc(C(C)(C)C)cc3)cc2c1
CC50 at 48 h [1]: > 5 µM | EC50 (Influenza A virus): 0.27 µM

Cc1ccc2[nH]c(=O)c(CN(Cc3cccc(F)c3)Cc3ccc4ccccc4c3)cc2c1
CC50 at 48 h [1]: > 5 µM | EC50 (Influenza A virus): 3.1 µM

Cc1ccc2cc(CN(Cc3ccc(F)cc3)Cc3ccc(C(C)C)cc3)c(=O)[nH]c2c1
CC50 at 48 h [1]: > 33 µM | EC50 (Influenza A virus): 2 µM

Cc1ccc2[nH]c(=O)c(CN(Cc3ccc(F)cc3)Cc3ccc(-c4ccccc4)cc3)cc2c1
CC50 at 48 h [1]: > 5 µM

CCOc1ccc(CN(Cc2ccc(C(C)(C)C)cc2)Cc2cc3cc(C)ccc3[nH]c2=O)cc1
CC50 at 48 h [1]: > 10 µM | EC50 (Influenza A virus): 0.54 µM

COc1ccc(C(C)N(Cc2ccc(C(C)(C)C)cc2)Cc2cc3cc(Br)ccc3[nH]c2=O)cc1Cl (configuration not stated)
CC50 at 48 h [1]: > 10 µM | EC50 (Influenza A virus): 0.53 µM

Cc1ccc2[nH]c(=O)c(CN(Cc3ccc(C(C)(C)C)cc3)[C@@H](C)c3ccc(F)cc3)cc2c1
CC50 at 48 h [1]: > 5 µM | EC50 (Influenza A virus): 0.5 µM

Cc1ccc2[nH]c(=O)c(CN(Cc3ccc(O)cc3)Cc3ccc(C(C)(C)C)cc3)cc2c1
CC50 at 48 h [1]: 4.9 µM | EC50 (Influenza A virus): 2.1 µM

CC(c1ccc(N(C)C)c(Cl)c1)N(Cc1ccc(C(C)(C)C)cc1)Cc1cc2cc(C3CC3)ccc2[nH]c1=O (configuration not stated)
CC50 at 48 h [1]: > 10 µM | EC50 (Influenza A virus): 0.09 µM

CC(C)(C)c1ccc(CN(Cc2ccc(C(F)(F)F)c(Cl)c2)Cc2cc3cc(C4CC4)ccc3[nH]c2=O)cc1
CC50 at 48 h [1]: > 10 µM | EC50 (Influenza A virus): 0.63 µM

Cc1ccc2[nH]c(=O)c(CN(Cc3ccc(OC(F)(F)F)cc3)Cc3ccc(C(C)(C)C)cc3)cc2c1
CC50 at 48 h [1]: > 5 µM | EC50 (Influenza A virus): 0.49 µM

COc1ccc(C(C)N(Cc2ccc(C(C)(C)C)cc2)Cc2cc3cc(C)ccc3[nH]c2=O)cc1Cl (configuration not stated)
CC50 at 48 h [1]: > 10 µM | EC50 (Influenza A virus): 0.11 µM

Cc1ccc2[nH]c(=O)c(CN(Cc3ccc(SC(F)(F)F)cc3)Cc3ccc(C(C)(C)C)cc3)cc2c1
CC50 at 48 h [1]: > 5 µM | EC50 (Influenza A virus): 1.3 µM

Cc1ccc2[nH]c(=O)c(CN(Cc3ccc(OCC(=O)OC(C)(C)C)cc3)Cc3ccc(C(C)(C)C)cc3)cc2c1
CC50 at 48 h [1]: > 10 µM | EC50 (Influenza A virus): 1.8 µM

Cc1ccc2[nH]c(=O)c(CN(Cc3ccc(C(C)(C)C)cc3)C(C)c3ccc(F)cc3)cc2c1 (configuration not stated)
CC50 at 48 h [1]: > 33 µM | EC50 (Influenza A virus): 1.3 µM

COc1ccc([C@H](C)N(Cc2ccc(C(C)(C)C)cc2)Cc2cc3cc(OC)ccc3[nH]c2=O)cc1
CC50 at 48 h [1]: 4.1 µM | EC50 (Influenza A virus): 0.12 µM

Cc1ccc2cc(CN(Cc3ccc(C(C)(C)C)cc3)CC3CCCCC3)c(=O)[nH]c2c1
CC50 at 48 h [1]: > 10 µM | EC50 (Influenza A virus): 1.9 µM

CCc1ccc2[nH]c(=O)c(CN(Cc3ccc(F)cc3)Cc3cccc4ccccc34)cc2c1
CC50 at 48 h [1]: > 5 µM

CCCCOc1ccc(CN(Cc2ccc(C(C)(C)C)cc2)Cc2cc3cc(C)ccc3[nH]c2=O)cc1
CC50 at 48 h [1]: > 5 µM

Cc1ccc2cc(CN(Cc3ccc(C(C)(C)C)cc3)Cc3cc(F)cc(F)c3)c(=O)[nH]c2c1
CC50 at 48 h [1]: > 33 µM | EC50 (Influenza A virus): 3.5 µM

COc1ccc(CN(Cc2ccc(C(C)(C)C)cc2)Cc2cc3cc(C)ccc3[nH]c2=O)cc1
CC50 at 48 h [1]: > 10 µM | EC50 (Influenza A virus): 0.33 µM

CCCOc1ccc(CN(Cc2ccc(C(C)(C)C)cc2)Cc2cc3cc(C)ccc3[nH]c2=O)cc1
CC50 at 48 h [1]: > 5 µM | EC50 (Influenza A virus): 3 µM

CCc1ccc2[nH]c(=O)c(CN(Cc3ccc(OCOC)cc3)Cc3ccc(C(C)(C)C)cc3)cc2c1
CC50 at 48 h [1]: > 10 µM | EC50 (Influenza A virus): 1 µM

Cc1ccc2cc(CN(Cc3ccc(C(C)C)cc3)Cc3ccccc3F)c(=O)[nH]c2c1
CC50 at 48 h [1]: > 33 µM | EC50 (Influenza A virus): 1.8 µM

CCc1ccc2[nH]c(=O)c(CN(Cc3ccc(C(C)(C)C)cc3)C(C)c3ccc(F)cc3)cc2c1 (configuration not stated)
CC50 at 48 h [1]: 2.8 µM | EC50 (Influenza A virus): 0.52 µM

CCc1ccc2[nH]c(=O)c(CN(Cc3ccc(C(C)(C)C)cc3)C(C)c3ccc(OC(F)F)cc3)cc2c1 (configuration not stated)
CC50 at 48 h [1]: > 5 µM | EC50 (Influenza A virus): 0.32 µM

COc1ccc([C@H](C)N(Cc2ccc(OC(F)(F)F)cc2)Cc2cc3ccccc3[nH]c2=O)cc1
CC50 at 48 h [1]: > 10 µM | EC50 (Influenza A virus): 1.9 µM

Cc1ccc2[nH]c(=O)c(CN(Cc3ccc(C(C)(C)C)cc3)C(C)c3ccc(N(C)C)c(Cl)c3)cc2c1 (configuration not stated)
CC50 at 48 h [1]: 9.8 µM | EC50 (Influenza A virus): 0.12 µM

CCc1ccc2[nH]c(=O)c(CN(Cc3ccc(C(C)(C)C)cc3)Cc3ccc(F)c(F)c3)cc2c1
CC50 at 48 h [1]: > 33 µM | EC50 (Influenza A virus): 63 µM

Cc1ccc2[nH]c(=O)c(CN(Cc3ccc(SC(F)F)cc3)Cc3ccc(C(C)(C)C)cc3)cc2c1
CC50 at 48 h [1]: > 5 µM | EC50 (Influenza A virus): 0.65 µM

Cc1ccc2[nH]c(=O)c(CN(Cc3ccc(F)cc3)Cc3cccc4ccccc34)cc2c1
CC50 at 48 h [1]: > 5 µM | EC50 (Influenza A virus): 1.8 µM

C[C@@H](c1ccc(OC(F)(F)F)cc1)N(Cc1ccc(C(F)(F)F)c(Cl)c1)Cc1cc2cc(C3CC3)ccc2[nH]c1=O
CC50 at 48 h [1]: 7.9 µM | EC50 (Influenza A virus): 0.12 µM
